In test [1] the target is T1, TFPI (Homo sapiens, UniProt P10646).
T1 construct: purchased American Diagnostica (Stamford, Conn.)
T1 sequence (P10646 29-304): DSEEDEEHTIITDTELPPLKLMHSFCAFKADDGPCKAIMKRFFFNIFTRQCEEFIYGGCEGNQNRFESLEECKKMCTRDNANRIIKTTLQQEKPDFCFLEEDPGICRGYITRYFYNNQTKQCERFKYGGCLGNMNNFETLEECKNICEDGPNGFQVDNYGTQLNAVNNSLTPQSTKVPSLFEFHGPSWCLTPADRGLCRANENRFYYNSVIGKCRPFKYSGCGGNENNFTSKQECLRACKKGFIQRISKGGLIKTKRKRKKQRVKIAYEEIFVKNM
The test can be described thus: dPT assay, inhibition of TFPI activity in Hem-A plasma, TFPI preincubated with NASP. To be noted: TFPI approximately 0.5 μg/ml. In kind it is biochemical. How it is done:
(§1) The dPT assay used was a modified standard clinical PT assay (Nordfang et al. (1991) Thromb Haemost 66:464-467; Welsch et al. (1991) Thrombosis Research 64: 213-222). SIMPLASTIN EXCEL thromboplastin reagent (Organon Teknika) was reconstituted with the manufacturer's diluent and further diluted 1:100 in 0.9% saline. The thromboplastin reagent, 25 mM CaCl2, and plasma samples were pre-warmed to 37° C. before initiating the assay. 100 μl of thawed plasma was aliquoted into microcentrifuge tubes. […] 100 μl of the diluted thromboplastin reagent and 100 μl of 25 mM CaCl2 were added to fibrin cups (Fisher) prewarmed to 37° C. 100 μl of plasma (normal or hemophilic) containing the test agent or saline control was added to the fibrin cups containing the thromboplastin reagent and CaCl2 to initiate clotting. The time for plasma clotting was measured with a BBL FIBROSYSTEM fibrometer.
(§2) Inhibition of TFPI activity by NASPs was assessed in dPT clotting assays with normal or hemophilic plasma and added recombinant TFPI. Diluted recombinant TFPI was preincubated with NASPs for 5 minutes at room temperature before plasma was added. After addition of plasma, the mixture was incubated for an additional 25 minutes followed by dPT initiation.

Test [2] addresses T1, TFPI. The test can be described thus: dPT assay, inhibition of TFPI activity in Hem-B plasma, TFPI preincubated with NASP. As to conditions: no NASP; Hem-B alone 46 seconds. It is filed as biochemical. How it is done: as §1, §2
The acceleration of plasma clotting by the NASPs in the presence of TFPI was also tested in Hem-B and normal plasma.

The subject of a further test is Hem-A plasma. The test can be described thus: dPT assay, TFPI titrated into FVIII deficient (Hem-A) plasma. In kind it is biochemical, human. How it is done:
as §1
A 100 μg/mL TFPI stock solution (American Diagnostica, Stamford, Conn.) was sequentially diluted in saline to generate TFPI solutions at the following concentrations: 20, 15, 10, 6, and 2 μg/mL. 5 μl of these TFPI dilutions were mixed with 95 μl of FVIII deficient plasma and incubated at room temperature for 30 minutes. dPT assays were performed as follows: SIMPLASTIN thromboplastin was diluted 1:100 in saline and prewarmed to 37° C. 25 mM CaCl2 and 100 μl of test plasma containing TFPI was prewarmed to 37° C. 100 μl SIMPLASTIN thromboplastin and 100 μl of CaCl2 were mixed and clotting time was measured using a BBL fibrometer.

The target in test [3] is T1, TFPI. The test can be described thus: dPT assay, inhibition of TFPI activity in Hem-A plasma without preincubation. It is filed as biochemical. To be noted: no NASP; Hem-A alone 45 seconds. The method, then: as §1
Experiments were repeated without a preincubation of the sulfated polysaccharides with TFPI prior to exposure to plasma. To extend the stringency of the test for NASP inhibition of TFPI activity, TFPI was added to the plasma before the NASP was added.

“TFPI: human recombinant TFPI from American Diagnostica”: in the test with TFPI [1] (from approximately 40 seconds, depending on experiment and source of plasma), the “clotting time of plasma with TFPI” value was 100 to 200 s. Also, the “Clotting time of Hem-A plasma + TFPI” value with TFPI [1] (no NASP, plasma alone 44 seconds) is listed as “Clotting time of Hem-A plasma + TFPI is 151 seconds”. Besides, the “Clotting time of Hem-B + TFPI” value in the test with TFPI [2] was “Clotting time of Hem-B + TFPI: 101 seconds”. The Clotting time with Hem-A plasma (TFPI 0.1 μg/mL in plasma) is 60 s; in the test on Hem-A plasma (TFPI 0.3 μg/mL in plasma), 94 s; in the test on Hem-A plasma (TFPI 0.5 μg/mL in plasma), 98 s; in the test on Hem-A plasma (TFPI 0.75 μg/mL in plasma) it was 173 s; in the test with Hem-A plasma (TFPI 1 μg/mL in plasma), greater than 200 s. The “Clotting time HemA + TFPI” value with TFPI [3] is recorded as “HemA + TFPI: 183 seconds”.

These data come from patent publication US8771973B2, “Methods for treating bleeding disorders using sulfated polysaccharides” (Baxter Healthcare S.A., priority 2004, dated 2014).
